Results: patent US6133313A, “Insecticidal avocadofurans and triolein” (The Regents of the University of California, priority 1998, dated 2000)
“Also recorded” adds a separate entry of the source.

What was measured:
[1] = test system: Colletotrichum gloeosporioides; settings: in words; cited from earlier work
Bombyx mori L. larvae = settings: 4th instar, within 2 days; cited from earlier work
[2] = in words; cited from earlier work
S. exigua larvae [3] = test: growth inhibition and mortality of synthetic avocadofurans and triolein in diet bioassay; type: in vivo, Spodoptera exigua; settings: for 7-d Instar / 7-d Larval Weight: mean ± SE
Procedure: S. exigua larvae were used in all experiments. Larvae were reared on artificial diet modified from U.S.D.A. Agric. Res. Serv., Prod. Res. Rep., 1208:1 (1969), and maintained at 28+2° C., 14:10; light:dark (L:D) photoperiod.
The colony was collected from Orange Co., Calif. and had new genetic material added within 12 months prior to the study. The age of the cohorts tested was standardized by using neonates within 12 hours of eclosion. All bioassays were maintained at 28+2° C. 75% relative humidity (RH), and at 14:10 (L:D) photoperiod with fluorescent lighting.
The insecticidal activity of the fractions was tested with artificial diet bioassays. Treated diets were prepared by transferring 750 μl of acetone solutions of each fraction (equivalent to 300 mg crude idioblast cell oil) into 50-ml polypropylene centrifuge tubes (Fisher, Pittsburgh Pa.), evaporating the acetone, adding 2 ml of 0.1% Tween-80 solution (Fisher), homogenizing with an ultrasonic homogenizer (Co le-Parmer, Chicago Ill.), and adding prepared diet to produce a final weight of 15 g containing the equivalent of 2% idioblast oil. The mixture was vortexed for 3 mm.
Control diet was prepared by mixing 2 ml of Tween solution and 13 g of artificial diet to produce a final weight of 15 g. Control and treated diets were poured into 24-well (15.9 mm diameter and 15.9 mm depth) bioassay trays (C-D International Inc., Pitman N.J.). One neonate was added per well, and trays were placed in an incubator under the previously described conditions. Twenty-four neonates were tested for each fraction and control. Mortality and larval weights were recorded after 7 days.
The effect of the synthetically produced avocado furan compounds (>95% purity) and commercially available triolein (Sigma, St. Louis, Mo.) were tested on larval growth and mortality of S exigua. Treated and control diet were prepared as previously described.
Six different compound concentrations, chosen on the basis of studies with the oil fractions, were evaluated for both 2-(pentadecyl)furan and 2-(heptadecyl)furan: 0 (control), 600, 750, 900, 1050, and 1200 μg/g. Also, six concentrations of triolein (subfraction 1-1-12) were tested: 0 (control), 7000, 8000, 9000, 10000, and 11000 μg/g.
Twenty-four neonates were used per treatment. Bioassays were conducted as described in Example 4, and replicated 4 times for each concentration (i.e., a total of 96 larvae were tested for each concentration). Larval weight, instar, and mortality were recorded after 7 days […].
(§1) EC (effective concentration) values were calculated by subtracting the mean larval weight for each treatment from the mean weight of the controls, and dividing by the mean weight of the controls. LC (lethal concentration) values were obtained using probit analysis as described in Probit Analysis (1971) Cambridge University Press, Cambridge, UK. GI (growth index) and RGI (relative growth index) values were calculated as described in J. Chem. Ecol., 19:1109 (1993), but using an imax of 3 (the stage attained by most control larvae after 7 d). Statistical comparisons were conducted using SuperAnova Abacus Concept Inc., Berkeley, Calif. (1989).

S. exigua larvae [4] = test: as above; type: in vivo, Spodoptera exigua; settings: 3,500 μg/g
S. exigua larvae [5] = test: toxicity of furan analogs of variable side chain length in diet assay; type: in vivo, Spodoptera exigua; settings: 5 μmoles g^-1 diet
Procedure: To determine the toxicity of avocadofurans and their furan analogs, five saturated furans of variable side chain lengths, namely 2-(tetradecyl)furan compound (20), 2-(pentadecyl)furan (1), 2-(hexadecyl)furan compound (21), 2-(heptadecyl)furan (4), and 2-(octadecyl)furan compound (22) were tested for their activity against S. exigua in diet assay. Diets for treatments were prepared at a concentration known to be insecticidal against S. exigua early instar of 5 μmoles g^-1 diet. To compare toxicity among furans, concentration in μmoles g^-1 diet were adjusted according to the molecular weights of individual furans.
Five saturated furans of variable side chain lengths: 2-(tetradecyl)furan (20), 2-(pentadecyl)furan (1), 2-(hexadecyl)furan (21), 2-(heptadecyl)furan (4), and 2-(octadecyl)furan (22) were tested for activity against S. exigua in diet bioassays. Treated diets were prepared at a concentration known to be insecticidal against S. exigua early instars (5 μmoles g^-1 diet). To compare toxicity among furans, concentrations in μmoles g^-1 of diet were used to compensate for their different molecular weights.
Each furan compound was transferred into a 50-ml polypropylene centrifuge tube (Fisher, Pittsburgh Pa.), added 2 ml of 0.1% Tween-80 solution (Fisher), homogenized with an ultrasonic homogenizer (Cole-Parmer, Chicago, Ill.), and artificial diet was added to produce a final weight of 15 g. The mixture was vortexed for 3 mm. Control diet was prepared by mixing 2 ml of Tween solution with 13 g of artificial diet to produce a final weight of 15 g. Control and treated diets were poured into 16-well bioassay trays (C-D International Inc., Pitman N.J.). One neonate was added per well. Trays were placed in an incubator set for conditions described previously. Twenty-four neonates were tested for each treatment. Each treatment was replicated four times (total of 96 larvae/treatment). Larval mortality and weight were recorded after 9 days.

Bacillus subtilis = settings: in words; cited from earlier work
Staphylococcus aureus = settings: in words; cited from earlier work
S. exigua = test: synergistic/joint toxicity of avocadofuran and triolein combinations; type: in vivo, Spodoptera exigua
Source text: The treatments were as follows: Control, 2-(pentadecyl)furan, 2-(heptadecyl)furan, triolein, individually, and 2-(pentadecyl)furan combined with 2-(heptadecyl)furan and triolein, 2-(pentadecyl)furan combined with triolein, and 2-(heptadecyl)furan combined with triolein. Because the combined LC25 s for both avocadofurans exceed their LC50 values, a concentration for each was adjusted so that when added it would approximate the value of the avocadofurans LC50 (see Table 2). These concentrations were used whenever both avocadofurans were combined in the same treatment. Treatments were replicated four times, with 15 larvae per replicate to a total of 60 larvae/treatment.
Joint effects were determined by testing all combinations of LC25 s (estimated from probit lines shown in Table 1) of the three compounds for toxicity to S. exigua. The treatments were: control, 2-(pentadecyl)furan, 2-(heptadecyl)furan, triolein, 2-(pentadecyl)furan+triolein, 2-(heptadecyl)furan+triolein, and 2-(pentadecyl)furan+2-(heptadecyl)furan+triolein. Because the combined LC25 s for both avocadofurans exceeded their LC50 values (due to a steep slope of their LC lines), a concentration for each was used so that when added together it would approximate the value of the avocadofurans LC50 (Table 1). These concentrations were used whenever both avocadofurans were combined in the same treatment.
Treatments were replicated four times, with 15 larvae per replicate (total of 60 larvae/treatment). Dietary treatment preparations and bioassay procedures were conducted as described in Example 4. For each diet treatment, 9-d larval instar and weight, pupal weights, times to pupation, and larval mortality were recorded.

neonate S. exigua = test: individual toxicity of avocadofurans and triolein in artificial diet; type: in vivo, Spodoptera exigua; settings: for LC50 (95% FL): in diet
Procedure: In this study, individual activity of avocadofurans was investigated quantitatively. For this purpose, eight concentrations of the avocadofurans (1) and (4) and triolein (8) were tested. Results are seen in FIG. 6.
Following pilot studies, eight concentrations of each were tested: 0, 0.5, 1, 1.5, 2, 2.5, 3, and 3.5 μmoles g^~1 diet. Also, five concentrations of triolein were tested: 0; 1,000; 2,000; 3,000; and 4,000 μg g^~1 diet. Because triolein was not compared to a structurally similar compound, a more standard dietary formulation of μg g-^1 was used rather than ^~ moles g^-1 in all triolein-treated bioassays.
Treated and control diet were prepared as described above. For each concentration the compounds were dissolved in 10 ml of Tween solution and mixed using an ultrasonic homogenizer. Untreated diet was added to make a total of 100 g and then vortexed for 3 mm. Control diet was prepared by mixing 10 ml of the Tween solution with 90 g of artificial diet to produce a final weight of 100 g. Control and treated diets were poured into 30 ml plastic cups. One neonate was placed in each cup and cups were held in an incubator. Fifteen larvae were tested at each concentration, and assays were replicated 4 times (total of 60 larvae/treatment). For each diet treatment, 9-d larval instar and weight, pupal weights, times to pupation, and larval mortality were recorded.
as §1

[6] = Spodoptera exigua, feed or water, 168 h

SMILES: CCCCC/C=C\C/C=C\CCCCCCCC(=O)CC(O)COC(C)=O (single isomer, unassigned) [persin, 1-acetoxy-2-hydroxy-4-oxo-heneicosa-(12Z,15Z)-diene]
- antifungal activity [1]: antifungal activity
- concentration at which growth inhibited (Bombyx mori L. larvae): 200 µg/g

SMILES: C=CCCCCCCCCCCCC(O)CC(O)CO (stereo not shown) [1,2,4-trihydroxy-n-heptadec-16-ene]
- fungicidal / antifungal activity [2]: antifungal activity

SMILES: C#CCCCCCCCCCCCC(O)CC(O)CO (stereo not shown) [1,2,4-trihydroxyheptadec-16-yne]
- fungicidal / antifungal activity [2]: antifungal activity

SMILES: C=CCCCCCCCCCCCC(O)CC(O)COC(C)=O (stereo not shown) [1-acetoxy-2,4-dihydroxy-n-heptadec-16-ene]
- fungicidal / antifungal activity [2]: active as a fungicide

SMILES: C#CCCCCCCCCCCCC(O)CC(O)COC(C)=O (stereo not shown) [1-acetoxy-2,4-dihydroxyheptadec-16-yne]
- fungicidal / antifungal activity [2]: antifungal activity

SMILES: CCCCCCCCCCCCC/C=C/c1ccco1 [2-(1E-pentadecenyl)furan]
- mortality at 3500 µg/g (S. exigua larvae [3]; Spodoptera exigua, feed or water, 3,500 μg/g): 12.5%
- concentration at which S. exigua growth is inhibited / compound active (S. exigua larvae [3]; lowest active concentration, in diet): ≥ 3,500 μg/g
- reduction of larval growth compared to controls (S. exigua larvae [4]): 57.3%

SMILES: CCCCCCCCCCCCCCCCc1ccco1 [2-(hexadecyl)furan]
- effect on 9-day larval weight (FIG. 5B) (S. exigua larvae [5]; in words): comparable to the best compound described above, namely compound (1)

SMILES: CCCCCCCCCCCCCCCCCCc1ccco1 [2-(octadecyl)furan]
- effect on 9-day larval weight (FIG. 5B) (S. exigua larvae [5]; in words): comparable to the best compound described above, namely compound (1)

SMILES: CCCCCCCCCCCCCCc1ccco1 [2-(tetradecyl)furan]
- effect on mortality (FIG. 5A) (S. exigua larvae [5]; 9 d, in words): had the lowest activity
- effect on 9-day larval weight (FIG. 5B) (S. exigua larvae [5]; in words): significantly reducing larval weight compared to the control
- mortality at 5 µmol/g (S. exigua larvae [5]; Spodoptera exigua, feed or water, 216 h, 9 d, read-out: mortality of S. exigua larvae (FIG. 5A)): < 50%

SMILES: C=CCCCCCCCCCCCc1ccco1 [2-(trideca-12-enyl)furan]
- growth inhibitory activity (Bacillus subtilis): growth inhibitory activity
- growth inhibitory activity (Staphylococcus aureus): growth inhibitory activity

SMILES: CCCCCCCC/C=C\CCCCCCCC(=O)OCC(COC(=O)CCCCCCC/C=C\CCCCCCCC)OC(=O)CCCCCCC/C=C\CCCCCCCC [Triolein (8), triolein]
- EC (effective concentration; weight reduction vs control) (S. exigua larvae [3]; 7000 μg/g): 65.43%
- GI (growth index) (S. exigua larvae [3]; 7000 μg/g): 0.64
- 7-d Instar (S. exigua larvae [3]; 7000 μg/g): 2.35 ± 0.08
- 7-d Larval Weight (S. exigua larvae [3]; 7000 μg/g): 10.84 ± 1.42 mg
- EC (effective concentration; weight reduction vs control) (S. exigua larvae [3]; 8000 μg/g): 43.64%
- GI (growth index) (S. exigua larvae [3]; 8000 μg/g): 0.67
- 7-d Instar (S. exigua larvae [3]; 8000 μg/g): 2.70 ± 0.10
- 7-d Larval Weight (S. exigua larvae [3]; 8000 μg/g): 17.67 ± 2.05 mg
- EC (effective concentration; weight reduction vs control) (S. exigua larvae [3]; 9000 μg/g): 84.44%
- GI (growth index) (S. exigua larvae [3]; 9000 μg/g): 0.39
- 7-d Instar (S. exigua larvae [3]; 9000 μg/g): 1.91 ± 0.08
- 7-d Larval Weight (S. exigua larvae [3]; 9000 μg/g): 4.88 ± 0.65 mg
- EC (effective concentration; weight reduction vs control) (S. exigua larvae [3]; 10000 μg/g): 81.52%
- GI (growth index) (S. exigua larvae [3]; 10000 μg/g): 0.37
- 7-d Instar (S. exigua larvae [3]; 10000 μg/g): 1.87 ± 0.10
- 7-d Larval Weight (S. exigua larvae [3]; 10000 μg/g): 5.79 ± 0.96 mg
- EC (effective concentration; weight reduction vs control) (S. exigua larvae [3]; 11000 μg/g): 71.85%
- GI (growth index) (S. exigua larvae [3]; 11000 μg/g): 0.28
- 7-d Instar (S. exigua larvae [3]; 11000 μg/g): 1.95 ± 0.13
- 7-d Larval Weight (S. exigua larvae [3]; 11000 μg/g): 8.82 ± 2.22 mg
- mortality at 7000 µg/g (S. exigua larvae [3]; [6]): 18.8%
- mortality at 8000 µg/g (S. exigua larvae [3]; [6]): 26%
- mortality at 9000 µg/g (S. exigua larvae [3]; [6]): 40.6%
- mortality at 10000 µg/g (S. exigua larvae [3]; [6]): 42.7%
- mortality at 11000 µg/g (S. exigua larvae [3]; [6]): 59.4%
- LC50 (95% FL) (S. exigua larvae [3]; in diet): 10364 µg/g
- level in artificial diet at which toxicity is exhibited (S. exigua larvae [3]; in vivo): about 1%
- inhibition of larval growth (S. exigua larvae [3]; in words): significantly inhibited larval growth at relatively high concentrations
- Relative Growth Index (RGI) vs log concentration regression (FIG. 4) (S. exigua larvae [3]; log (μg/g)): y=7.68-1.83*log(x), r^2 =0.86
- concentration significantly reducing larval weight and development (S. exigua larvae [3]; lowest concentration, in diet): ≥ 7000 µg/g
- Survival to pupation (S. exigua; in vivo): 83.3%
- Weight, 9-d larvae (S. exigua; mean ± spread): 111.8 ± 10.3 mg
- Weight, Pupae (S. exigua; mean ± spread): 116.4 ± 3.7 mg
- Developmental times (S. exigua; neonate-pupa, in d (unit assumed)): 15.3 ± 0.4
- Mortality (%) using LC25 (S. exigua; single substance, at estimated LC25): 16.7%
- reduction of 9-d larval weight (FIG. 6B) (neonate S. exigua; 2,000 μg g^-1 or higher): more than 35%
- comparative toxic and inhibitory effect (neonate S. exigua; in words): inhibitory at concentrations much higher than either of the avocadofurans tested in this assay
- effect on larval mortality (FIG. 9) (neonate S. exigua; in words): increases larval mortality
- effect on pupal weight (FIG. 7) (neonate S. exigua; in words): no effect on larval developmental time and pupal weight
- larval developmental time from neonate to pupa (FIG. 8) (neonate S. exigua; in words): not significantly prolonged; also recorded: no effect on larval developmental time
- Relative Growth Index (RGI) (FIG. 10) (neonate S. exigua; in words, increasing concentrations): decreased with increasing concentrations
- concentration significantly reducing 9-d weight (FIG. 6B) (neonate S. exigua; lowest concentration vs controls): ≥ 2,000 μg g^-1
- LC25 (95% FL) (neonate S. exigua; triolein, larval stage): 1,900(1,304-2,339) μg g^-1 of diet
- LC50 (95% FL) (neonate S. exigua; triolein, larval stage, listed as Triolein): 3,631(2,979-5,203) μg g^-1
- LC50 (95% FL) (neonate S. exigua; triolein, larval stage, listed as triolein): 3,631 μg g^-1
